Results taken from PubChem BioAssay AID1963968 (Molecular Pharmacology Branch, DTP, NCI, 2024).
pIC50: −log10 of the molar value.

Test system: 945468-187-T-J3-PDC spheroids with HUVEC/MSC, viability
Assay: Anticancer human tumor 945468-187-T-J3-PDC patient-derived rectal carcinoma cell line growth inhibition [PI3K]
Settings: for pIC50: curve of first compound; for viability, T/C: stronger effect = lower value
Procedure, shortened: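 Multi-cell spheroids combine tumor cells with HUVEC and human MSCs, treated with targeted agents alone or with inavolisib, alpelisib, duvelisib or copanlisib. Concentrations fall in half-log steps from at or near clinical Cmax, or from 10 microM where Cmax is unknown; viability read-out.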

[1] = second compound 0.00316 µM, first compound 0.0316 µM
[2] = second compound 0.00316 µM, first compound 0.1 µM
[3] = second compound 0.00316 µM, first compound 0.316 µM
[4] = second compound 0.00316 µM, first compound 1 µM
[5] = second compound 0.00316 µM, first compound 3.16 µM
[6] = second compound 0.00316 µM, first compound 10 µM
[7] = second compound 0.01 µM, first compound 0.0316 µM
[8] = second compound 0.01 µM, first compound 0.1 µM
[9] = second compound 0.01 µM, first compound 0.316 µM
[10] = second compound 0.01 µM, first compound 1 µM
[11] = second compound 0.01 µM, first compound 3.16 µM
[12] = second compound 0.01 µM, first compound 10 µM
[13] = second compound 0.0316 µM, first compound 0.0316 µM
[14] = second compound 0.0316 µM, first compound 0.1 µM
[15] = second compound 0.0316 µM, first compound 0.316 µM
[16] = second compound 0.0316 µM, first compound 1 µM
[17] = second compound 0.0316 µM, first compound 3.16 µM
[18] = second compound 0.0316 µM, first compound 10 µM
[19] = second compound 0.1 µM, first compound 0.0316 µM
[20] = second compound 0.1 µM, first compound 0.1 µM
[21] = second compound 0.1 µM, first compound 0.316 µM
[22] = second compound 0.1 µM, first compound 1 µM
[23] = second compound 0.1 µM, first compound 3.16 µM
[24] = second compound 0.1 µM, first compound 10 µM
[25] = second compound 0.316 µM, first compound 0.0316 µM
[26] = second compound 0.316 µM, first compound 0.1 µM
[27] = second compound 0.316 µM, first compound 0.316 µM
[28] = second compound 0.316 µM, first compound 1 µM
[29] = second compound 0.316 µM, first compound 3.16 µM
[30] = second compound 0.316 µM, first compound 10 µM
[31] = second compound 1 µM, first compound 0.0316 µM
[32] = second compound 1 µM, first compound 0.1 µM
[33] = second compound 1 µM, first compound 0.316 µM
[34] = second compound 1 µM, first compound 1 µM
[35] = second compound 1 µM, first compound 3.16 µM
[36] = second compound 1 µM, first compound 10 µM
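Note: spheroids exposed to agents for 7 days before viability read.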
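Throughout, for viability, T/C: 100% = DMSO vehicle control viability.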

In the case of CC1(C)CCC(Nc2ncc(C(F)(F)F)c(-c3c[nH]c4c(P(C)(C)=O)c(C#N)ccc34)n2)CN1 (centres undefined) + CC(Nc1ccc2c(c1)OCCn1cc(N3C(=O)OCC3C(F)F)nc1-2)C(N)=O, the pIC50 (second compound 0.00316 µM) was 5.25, the pIC50 (second compound 0.01 µM) was 5.24 and the pIC50 (second compound 0.0316 µM) was 5.28. It also gave a pIC50 (second compound 0.1 µM) of 5.28, a pIC50 (second compound 0.316 µM) of 5.42 and a pIC50 (second compound 1 µM) of 5.70. The viability, T/C [1] was 83.5%, the viability, T/C [2] was 85.8% and the viability, T/C [3] was 69.1%. For the same compound, the viability, T/C [4] was 85.8%, the viability, T/C [5] was 86.1% and the viability, T/C [6] was 18.5%. It also gave a viability, T/C [7] of 83.8%, a viability, T/C [8] of 83.5% and a viability, T/C [9] of 72.3%. For the same compound, the viability, T/C [10] was 94.7%, the viability, T/C [11] was 96.6% and the viability, T/C [12] was 15.1%. The viability, T/C [13] was 82.9%, the viability, T/C [14] was 77.4% and the viability, T/C [15] was 71.2%. The viability, T/C [16] was 79.8%, the viability, T/C [17] was 87.3% and the viability, T/C [18] was 11.8%. For the same compound, the viability, T/C [19] was 86.1%, the viability, T/C [20] was 88.6% and the viability, T/C [21] was 70.8%. For the same compound, the viability, T/C [22] was 77.6%, the viability, T/C [23] was 82% and the viability, T/C [24] was 11.9%. For the same compound, the viability, T/C [25] was 82.4%, the viability, T/C [26] was 79.2% and the viability, T/C [27] was 80.7%. The viability, T/C [28] was 61.4%, the viability, T/C [29] was 63.2% and the viability, T/C [30] was 8.03%. It also gave a viability, T/C [31] of 80.7%, a viability, T/C [32] of 62.4% and a viability, T/C [33] of 62%. For the same compound, the viability, T/C [34] was 51.6%, the viability, T/C [35] was 52.2% and the viability, T/C [36] was 4.39%.
For Cn1nccc1Nc1nccc(-c2ccn(C(CO)c3ccc(Cl)c(F)c3)c(=O)c2)n1 (centres undefined) + CC(Nc1ccc2c(c1)OCCn1cc(N3C(=O)OCC3C(F)F)nc1-2)C(N)=O, the pIC50 (second compound 0.00316 µM) was under 5.00, the pIC50 (second compound 0.01 µM) was under 5.00 and the pIC50 (second compound 0.0316 µM) was under 5.00. It also gave a pIC50 (second compound 0.1 µM) of under 5.00, a pIC50 (second compound 0.316 µM) of under 5.00 and a pIC50 (second compound 1 µM) of under 5.00. It also gave a viability, T/C [1] of 93.2%, a viability, T/C [2] of 108% and a viability, T/C [3] of 103%. It also gave a viability, T/C [4] of 120%, a viability, T/C [5] of 143% and a viability, T/C [6] of 145%. It also gave a viability, T/C [7] of 103%, a viability, T/C [8] of 101% and a viability, T/C [9] of 97.5%. It also gave a viability, T/C [10] of 115%, a viability, T/C [11] of 124% and a viability, T/C [12] of 131%. For the same compound, the viability, T/C [13] was 106%, the viability, T/C [14] was 99.4% and the viability, T/C [15] was 106%. For the same compound, the viability, T/C [16] was 122%, the viability, T/C [17] was 131% and the viability, T/C [18] was 123%. For the same compound, the viability, T/C [19] was 102%, the viability, T/C [20] was 108% and the viability, T/C [21] was 115%. For the same compound, the viability, T/C [22] was 124%, the viability, T/C [23] was 115% and the viability, T/C [24] was 116%. It also gave a viability, T/C [25] of 97.3%, a viability, T/C [26] of 91.7% and a viability, T/C [27] of 97.2%. The viability, T/C [28] was 89.3%, the viability, T/C [29] was 78.3% and the viability, T/C [30] was 80.1%. It also gave a viability, T/C [31] of 78.8%, a viability, T/C [32] of 79.8% and a viability, T/C [33] of 65%. It also gave a viability, T/C [34] of 72%, a viability, T/C [35] of 60.7% and a viability, T/C [36] of 62.7%.
